From ChEMBL document CHEMBL3885881, “DrugMatrix”

Species on record: Rattus norvegicus
Assay: DrugMatrix - Regimen: Daily Repeat
Format: toxicity, organism-based, Sprague-Dawley
Design: regimen Daily Repeat, gender Male, age 6-8 weeks
Conditions: in vivo, po, route oral GAVAGE, vehicle 100 % WATER; for ABSOLUTE BASOPHIL / ABSOLUTE EOSINOPHIL / ABSOLUTE LYMPHOCYTE / ABSOLUTE MONOCYTE / ABSOLUTE SEGMENTED NEUTROPHIL / BASOPHIL / EOSINOPHIL / ERYTHROCYTE COUNT / HEMATOCRIT / HEMOGLOBIN / LEUKOCYTE COUNT / LYMPHOCYTE / MEAN CORPUSCULAR HEMOGLOBIN / MEAN CORPUSCULAR HEMOGLOBIN CONCENTRATION / MEAN CORPUSCULAR VOLUME / MONOCYTE / NEUTROPHIL / NUCLEATED RED BLOOD CELLS / PLATELET COUNT: tissue Blood; for ALANINE AMINOTRANSFERASE / ALBUMIN / ALKALINE PHOSPHATASE / ASPARTATE AMINOTRANSFERASE / BLOOD UREA NITROGEN / CARBON DIOXIDE / CHLORIDE / CHOLESTEROL / CREATINE PHOSPHOKINASE / CREATININE / GLUCOSE / LACTATE DEHYDROGENASE / LIPASE / PHOSPHORUS / POTASSIUM / SODIUM / TOTAL BILIRUBIN / TOTAL PROTEIN / URIC ACID: tissue Plasma
[1] = 0 mg/kg, 72 h, dose level Control, time 3 day
[2] = 0 mg/kg, 120 h, dose level Control, time 5 day
[3] = 100 mg/kg, 72 h, dose level Low, time 3 day

SMILES: NCC1(CC(=O)O)CCCCC1 [GABAPENTIN]
- ABSOLUTE BASOPHIL [1]: 0 CELLS/uL
- ABSOLUTE EOSINOPHIL [1]: 133.83 CELLS/uL
- ABSOLUTE LYMPHOCYTE [1]: 11674.67 CELLS/uL
- ABSOLUTE MONOCYTE [1]: 65.33 CELLS/uL
- ABSOLUTE SEGMENTED NEUTROPHIL [1]: 1559.5 CELLS/uL
- BASOPHIL [1]: 0%
- EOSINOPHIL [1]: 1%
- ERYTHROCYTE COUNT [1]: 5.26 x10E6/uL
- HEMATOCRIT [1]: 34.15%
- HEMOGLOBIN [1]: 13.6 G/DL
- LEUKOCYTE COUNT [1]: 13.43 x10E3/uL
- LYMPHOCYTE [1]: 86.83%
- MEAN CORPUSCULAR HEMOGLOBIN [1]: 25.87 pg
- MEAN CORPUSCULAR HEMOGLOBIN CONCENTRATION [1]: 39.85 G/DL
- MEAN CORPUSCULAR VOLUME [1]: 64.93 fL
- MONOCYTE [1]: 0.5%
- NEUTROPHIL [1]: 11.67%
- NUCLEATED RED BLOOD CELLS [1]: 0.17 /100WBC
- PLATELET COUNT [1]: 1188.5 x10E3/uL
- ALANINE AMINOTRANSFERASE [1]: 48.5 u/L
- ALBUMIN [1]: 4.1 G/DL
- ALKALINE PHOSPHATASE [1]: 338.83 u/L
- ASPARTATE AMINOTRANSFERASE [1]: 84.17 u/L
- BLOOD UREA NITROGEN [1]: 15.17 mg/dL
- CARBON DIOXIDE [1]: 26.83 mmol/L
- CHLORIDE [1]: 101.33 MEQ/L
- CHOLESTEROL [1]: 77 mg/dL
- CREATINE PHOSPHOKINASE [1]: 600.83 u/L
- CREATININE [1]: 0.15 mg/dL
- GLUCOSE [1]: 161.67 mg/dL
- LACTATE DEHYDROGENASE [1]: 222.17 u/L
- LIPASE [1]: 10.17 u/L
- PHOSPHORUS [1]: 12.63 mg/dL
- POTASSIUM [1]: 6.36 MEQ/L
- SODIUM [1]: 143.17 MEQ/L
- TOTAL BILIRUBIN [1]: 0.17 mg/dL
- TOTAL PROTEIN [1]: 5.65 G/DL
- URIC ACID [1]: 1.38 mg/dL
- ABSOLUTE BASOPHIL [2]: 0 CELLS/uL
- ABSOLUTE EOSINOPHIL [2]: 66.5 CELLS/uL
- ABSOLUTE LYMPHOCYTE [2]: 10848.67 CELLS/uL
- ABSOLUTE MONOCYTE [2]: 106.17 CELLS/uL
- ABSOLUTE SEGMENTED NEUTROPHIL [2]: 1028.67 CELLS/uL
- BASOPHIL [2]: 0%
- EOSINOPHIL [2]: 0.5%
- ERYTHROCYTE COUNT [2]: 5.42 x10E6/uL
- HEMATOCRIT [2]: 34.53%
- HEMOGLOBIN [2]: 14.07 G/DL
- LEUKOCYTE COUNT [2]: 12.05 x10E3/uL
- LYMPHOCYTE [2]: 90%
- MEAN CORPUSCULAR HEMOGLOBIN [2]: 25.98 pg
- MEAN CORPUSCULAR HEMOGLOBIN CONCENTRATION [2]: 40.73 G/DL
- MEAN CORPUSCULAR VOLUME [2]: 63.78 fL
- MONOCYTE [2]: 1%
- NEUTROPHIL [2]: 8.5%
- NUCLEATED RED BLOOD CELLS [2]: 0 /100WBC
- PLATELET COUNT [2]: 1256.33 x10E3/uL
- ALANINE AMINOTRANSFERASE [2]: 55.17 u/L
- ALBUMIN [2]: 4.3 G/DL
- ALKALINE PHOSPHATASE [2]: 333.83 u/L
- ASPARTATE AMINOTRANSFERASE [2]: 81.33 u/L
- BLOOD UREA NITROGEN [2]: 15.67 mg/dL
- CARBON DIOXIDE [2]: 30 mmol/L
- CHLORIDE [2]: 100.67 MEQ/L
- CHOLESTEROL [2]: 67.67 mg/dL
- CREATINE PHOSPHOKINASE [2]: 221.33 u/L
- CREATININE [2]: 0.16 mg/dL
- GLUCOSE [2]: 161.33 mg/dL
- LACTATE DEHYDROGENASE [2]: 166.83 u/L
- LIPASE [2]: 8.33 u/L
- PHOSPHORUS [2]: 12.63 mg/dL
- POTASSIUM [2]: 5.98 MEQ/L
- SODIUM [2]: 144.63 MEQ/L
- TOTAL BILIRUBIN [2]: 0.2 mg/dL
- TOTAL PROTEIN [2]: 6.15 G/DL
- URIC ACID [2]: 1.17 mg/dL
- ABSOLUTE BASOPHIL [3]: 0 CELLS/uL
- ABSOLUTE EOSINOPHIL [3]: 86.33 CELLS/uL
- ABSOLUTE LYMPHOCYTE [3]: 13178.33 CELLS/uL
- ABSOLUTE MONOCYTE [3]: 43 CELLS/uL
- ABSOLUTE SEGMENTED NEUTROPHIL [3]: 1125.67 CELLS/uL
- BASOPHIL [3]: 0%
- EOSINOPHIL [3]: 0.67%
- ERYTHROCYTE COUNT [3]: 5.28 x10E6/uL
- HEMATOCRIT [3]: 34.3%
- HEMOGLOBIN [3]: 13.73 G/DL
- LEUKOCYTE COUNT [3]: 14.43 x10E3/uL
- LYMPHOCYTE [3]: 91%
- MEAN CORPUSCULAR HEMOGLOBIN [3]: 26.1 pg
- MEAN CORPUSCULAR HEMOGLOBIN CONCENTRATION [3]: 40.1 G/DL
- MEAN CORPUSCULAR VOLUME [3]: 65 fL
- MONOCYTE [3]: 0.33%
- NEUTROPHIL [3]: 8%
- NUCLEATED RED BLOOD CELLS [3]: 0 /100WBC
- PLATELET COUNT [3]: 1169.33 x10E3/uL
- ALANINE AMINOTRANSFERASE [3]: 52.33 u/L
- ALBUMIN [3]: 4.17 G/DL
- ALKALINE PHOSPHATASE [3]: 377.67 u/L
- ASPARTATE AMINOTRANSFERASE [3]: 80 u/L
- BLOOD UREA NITROGEN [3]: 14.33 mg/dL
- CARBON DIOXIDE [3]: 27.33 mmol/L
- CHLORIDE [3]: 103 MEQ/L
- CHOLESTEROL [3]: 71 mg/dL
- CREATINE PHOSPHOKINASE [3]: 245 u/L
- CREATININE [3]: 0.17 mg/dL
- GLUCOSE [3]: 170.67 mg/dL
- LACTATE DEHYDROGENASE [3]: 111.67 u/L
- LIPASE [3]: 9.67 u/L
- PHOSPHORUS [3]: 11.67 mg/dL
- POTASSIUM [3]: 6.11 MEQ/L
- SODIUM [3]: 144.87 MEQ/L
- TOTAL BILIRUBIN [3]: 0.23 mg/dL
- TOTAL PROTEIN [3]: 5.67 G/DL
- URIC ACID [3]: 1.6 mg/dL
